Literature values as cited in US11472782B2, “RIP1 inhibitory compounds and methods for making and using the same” (priority 2018, dated 2022).

Tested on: TNF-alpha induced hypothermia
Details: mouse, dose of 30 mg/kg, according to WO 2014/125444

In the case of `CN1C(=O)[C@@H](NC(=O)c2nnc(Cc3ccccc3)[nH]2)COc2ccccc21` [comparative compound, (S)-5-benzyl-N-(5-methyl-4-oxo-2,3,4,5-tetrahydrobenzo[b][1,4]oxazepin-3-yl)-4H-1,2,4-triazole-3-carboxamide], the “inhibition of TNF-alpha induced hypothermia” value is listed as 93%.
